This passage reports IC50 results from patent US20070203066A1, “Compositions and methods for inhibiting cellular proliferation” (priority 2005, published 2007).

Structures are written as SMILES. Starred links: 1 amine or outer side, 2 acyl side, 3 side chain; linkers in the order of their positions; H or OH if unused. Positions of bridges follow the written chain, without caps; N, C: chain ends. Residues, ends and D or L forms follow the SMILES beside them. Chains are numbered I, II in the order given. X1 = CC(C)(C)OC(=O)NCCC(=O)N(CCC(=O)[*:1])CCN(CCC(=O)[*:2])C(=O)CCNC(=O)OC(C)(C)C

For the assay, the system named is HUVECs. The format is cell-based. To be noted: 48 h. The essentials: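 HUVECs seeded at 5,000 cells/well in EBM with 2% FCS, adhered ≥12 hours, then stimulated with bFGF 10 ng/ml or VEGF 5 ng/ml plus varying peptide concentrations. After 48 hours at 37 ° C, 5% CO2, proliferation inhibition read by BrdU incorporation.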
As for `CC[C@H](C)[C@H](NC(=O)[C@H](C)NC(=O)[C@@H](NC(=O)[C@H](CCCNC(=N)N)NC(=O)[C@H](CCC(N)=O)NC(=O)[C@H](CCCNC(=N)N)NC(=O)[C@H](CCCNC(=N)N)NC(=O)[C@H](CCCNC(=N)N)NC(=O)[C@H](CCCNC(=N)N)NC(=O)[C@H](C)NC(C)=O)C(C)C)C(=O)N[C@@H](Cc1ccc(O)cc1)C(=O)N[C@@H](Cc1ccccc1)C(=O)N[C@@H](CCCCNC(=O)CCN(CCN(CCC(=O)NCCCC[C@H](NC(=O)[C@H](Cc1ccccc1)NC(=O)[C@H](Cc1ccc(O)cc1)NC(=O)[C@@H](NC(=O)[C@H](C)NC(=O)[C@@H](NC(=O)[C@H](CCCNC(=N)N)NC(=O)[C@H](CCC(N)=O)NC(=O)[C@H](CCCNC(=N)N)NC(=O)[C@H](CCCNC(=N)N)NC(=O)[C@H](CCCNC(=N)N)NC(=O)[C@H](CCCNC(=N)N)NC(=O)[C@H](C)NC(C)=O)C(C)C)[C@@H](C)CC)C(N)=O)C(=O)CCNC(=O)OC(C)(C)C)C(=O)CCNC(=O)OC(C)(C)C)C(N)=O` [Peptide 331] (I: Ac-ARRRRQRVAIYFK-NH2 / II: Ac-ARRRRQRVAIYFK-NH2; linker I:13-II:13 via X1; C-terminus assumed), the IC50 – broadly, the concentration needed to halve the response being measured – is below 10 µM.
The result for `CC[C@H](C)[C@H](NC(=O)[C@H](CCCNC(=N)N)NC(=O)[C@@H](NC(=O)[C@H](Cc1c[nH]cn1)NC(=O)[C@H](CCC(N)=O)NC(=O)[C@H](CCCNC(=N)N)NC(=O)[C@H](CCCNC(=N)N)NC(=O)[C@H](Cc1c[nH]cn1)NC(=O)[C@H](Cc1c[nH]cn1)NC(=O)[C@H](CCCNC(=N)N)NC(C)=O)C(C)C)C(=O)N[C@@H](Cc1ccc(O)cc1)C(=O)N[C@@H](Cc1ccccc1)C(=O)N[C@@H](CCCCNC(=O)CN(CC(=O)NCCCC[C@H](NC(=O)[C@H](Cc1ccccc1)NC(=O)[C@H](Cc1ccc(O)cc1)NC(=O)[C@@H](NC(=O)[C@H](CCCNC(=N)N)NC(=O)[C@@H](NC(=O)[C@H](Cc1c[nH]cn1)NC(=O)[C@H](CCC(N)=O)NC(=O)[C@H](CCCNC(=N)N)NC(=O)[C@H](CCCNC(=N)N)NC(=O)[C@H](Cc1c[nH]cn1)NC(=O)[C@H](Cc1c[nH]cn1)NC(=O)[C@H](CCCNC(=N)N)NC(C)=O)C(C)C)[C@@H](C)CC)C(N)=O)C(=O)CCNC(=O)OC(C)(C)C)C(N)=O` [Peptide 333] reads below 10 µM; that for `CC[C@H](C)[C@H](NC(=O)[C@H](C)NC(=O)[C@@H](NC(=O)[C@H](CCCNC(=N)N)NC(=O)[C@H](CCC(N)=O)NC(=O)[C@H](CCCNC(=N)N)NC(=O)[C@H](CCCNC(=N)N)NC(=O)[C@H](CCCNC(=N)N)NC(=O)[C@H](CCCNC(=N)N)NC(=O)[C@H](C)NC(C)=O)C(C)C)C(=O)N[C@@H](Cc1ccc(O)cc1)C(=O)N[C@@H](CCC(=O)O)C(=O)N[C@@H](CCCCNC(=O)CN(CC(=O)NCCCC[C@H](NC(=O)[C@H](CCC(=O)O)NC(=O)[C@H](Cc1ccc(O)cc1)NC(=O)[C@@H](NC(=O)[C@H](C)NC(=O)[C@@H](NC(=O)[C@H](CCCNC(=N)N)NC(=O)[C@H](CCC(N)=O)NC(=O)[C@H](CCCNC(=N)N)NC(=O)[C@H](CCCNC(=N)N)NC(=O)[C@H](CCCNC(=N)N)NC(=O)[C@H](CCCNC(=N)N)NC(=O)[C@H](C)NC(C)=O)C(C)C)[C@@H](C)CC)C(N)=O)C(=O)CCNC(=O)OC(C)(C)C)C(N)=O` [Peptide 346], above 30 µM; that for `CC[C@H](C)[C@H](NC(=O)[C@H](C)NC(=O)[C@@H](NC(=O)[C@H](CCSC)NC(=O)[C@H](CCC(N)=O)NC(=O)[C@H](CCCNC(=N)N)NC(=O)[C@H](CCCNC(=N)N)NC(=O)[C@H](CCCNC(=N)N)NC(=O)[C@H](CCCNC(=N)N)NC(=O)[C@H](C)NC(C)=O)C(C)C)C(=O)N[C@@H](Cc1ccc(O)cc1)C(=O)N[C@@H](Cc1ccccc1)C(=O)N[C@@H](CCCCNC(=O)CN(CC(=O)NCCCC[C@H](NC(=O)[C@H](Cc1ccccc1)NC(=O)[C@H](Cc1ccc(O)cc1)NC(=O)[C@@H](NC(=O)[C@H](C)NC(=O)[C@@H](NC(=O)[C@H](CCSC)NC(=O)[C@H](CCC(N)=O)NC(=O)[C@H](CCCNC(=N)N)NC(=O)[C@H](CCCNC(=N)N)NC(=O)[C@H](CCCNC(=N)N)NC(=O)[C@H](CCCNC(=N)N)NC(=O)[C@H](C)NC(C)=O)C(C)C)[C@@H](C)CC)C(N)=O)C(=O)CCNC(=O)OC(C)(C)C)C(N)=O` [Peptide 385], below 10 µM.
